Patent publication US20100056524A1, “Compound” (priority 2008, published 2010)
Structures can show the parent of a compound that is named as a salt.

Target: T1, TBK1 (Homo sapiens, UniProt Q9UHD2)
T1 construct: All protein kinases were of human origin and encoded full length proteins, unless indicated otherwise; His6; made in house; host or cells: insect Sf21 cells
T1 sequence (Q9UHD2 1-729): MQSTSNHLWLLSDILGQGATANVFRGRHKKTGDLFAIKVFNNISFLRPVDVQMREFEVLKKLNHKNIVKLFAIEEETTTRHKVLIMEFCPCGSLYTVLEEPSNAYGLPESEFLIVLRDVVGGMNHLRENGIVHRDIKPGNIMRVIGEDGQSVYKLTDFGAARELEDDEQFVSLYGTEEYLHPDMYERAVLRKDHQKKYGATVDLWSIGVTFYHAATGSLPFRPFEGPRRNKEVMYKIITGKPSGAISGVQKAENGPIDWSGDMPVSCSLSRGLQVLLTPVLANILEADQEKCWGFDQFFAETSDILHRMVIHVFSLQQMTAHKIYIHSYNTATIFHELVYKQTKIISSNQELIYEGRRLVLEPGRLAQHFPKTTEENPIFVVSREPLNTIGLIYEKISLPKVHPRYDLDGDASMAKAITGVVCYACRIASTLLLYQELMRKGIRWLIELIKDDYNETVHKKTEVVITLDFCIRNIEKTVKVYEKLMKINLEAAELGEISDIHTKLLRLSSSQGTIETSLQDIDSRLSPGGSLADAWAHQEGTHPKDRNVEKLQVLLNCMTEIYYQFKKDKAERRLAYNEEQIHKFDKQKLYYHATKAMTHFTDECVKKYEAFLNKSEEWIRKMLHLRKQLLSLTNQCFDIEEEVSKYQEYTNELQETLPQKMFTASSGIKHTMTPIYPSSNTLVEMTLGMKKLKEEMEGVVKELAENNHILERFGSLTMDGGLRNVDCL
Test: TBK1 protein kinase assay ([γ-33P]ATP, P81 filterplates)
Type: biochemical
Details: 50 μM ATP; read-out: Potency (TBK1 IC50 potency score)
Excerpt: All protein kinases were of human origin and encoded full length proteins, unless indicated otherwise. They were either expressed as glutathione S-transferase (GST) fusion proteins in Escherichia Coli or as hexahistidine (His6)-tagged proteins in insect Sf21 cells. GST fusion proteins were purified by affinity chromatography on glutathione-Sepharose, and His6-tagged proteins on nickel/nitriloacetate-agarose. The procedures for expressing some of the protein kinases used herein have been detailed previously.^8,9 The following sections outline the DNA vectors synthesised and the procedures used to express and purifying protein kinases that have not been reported previously.
The following kinases were expressed in Sf21 cells: Aurora B and Aurora C, extra-cellular signal-regulated kinase 8 (ERK8), microtubule affinity regulating kinase 3 (MARK3), protein kinase Bα[118-480][S473D], protein kinase Bβ (PKBβ[120-481][S474D], 3-phosphoinositide-dependent protein kinase-1 [52-556]
Assays were performed for 30 min using Multidrop Micro reagent dispensers (Thermo Electron Corporation, Waltham, Mass. 02454, USA) in a 96-well format. The concentration of magnesium acetate in the assays was 10 mM and the [γ-33P] ATP (800 cpm/pmol) was used at 5, 20 or 50 μM as indicated, in order to be at or below the Km for ATP for each enzyme. Protein kinases assayed at 5 μM ATP were: —ERK1, ERK8, PKBα, MARK3, Aurora C. Protein kinases assayed at 20 μM ATP were: —JNK1, PDK1, CHK1, CHK2, CDK2 and Aurora B. Protein kinases assayed at 50 μM ATP were: —MNK2, IKKepsilon and TBK1.
The assays were initiated with MgATP, stopped by addition of 5 μl of 0.5 M orthophosphoric acid and spotted on to P81 filterplates using a unifilter harvester (PerkinElmer, Boston, Mass. 02118, USA). The IC50 values of inhibitors were determined after carrying out assays at 10 different concentrations of each compound.
ERK1 and ERK8 were both assayed against myelin basic protein (MBP, 0.33 mg/ml). MARK3 was assayed against the peptide […] (300 μM), MNK2 against the eIF4E protein (0.5 mg/ml). PKBβ was assayed against the peptide […] (30 μM). TBK1 were assayed against ([…]) (300 μM). The substrates used for other protein kinases were described previously.^8,9
Unless stated otherwise, enzymes were diluted in 50 mM Tris/HCl pH 7.5, 0.1 mM EGTA, 1 mg/ml BSA, 0.1% (v/v) 2-mercaptoethanol and assayed in 50 mM Tris/HCl pH 7.5, 0.1 mM EGTA, 0.1% (v/v) 2-mercaptoethanol.

## CN(C)[C@H]1CCN(C(=O)c2cccc(Nc3ncc(C4CC4)c(NCCCNC(=O)C4CCC4)n3)c2)C1 [Example 125, Cyclobutanecarboxylic acid (3-{5-cyclopropyl-2-[3-((S)-3-dimethylamino-pyrrolidine-1-carbonyl)-phenylamino]-pyrimidin-4-ylamino}-propyl)-amide]
  IC50: < 100 nM

## O=C(NCCCNc1nc(Nc2cccc(-c3cncnc3)c2)ncc1C1CC1)C1CCC1 [Example 117, Cyclobutanecarboxylic acid {3-[5-cyclopropyl-2-(3-pyrimidin-5-yl-phenylamino)-pyrimidin-4-ylamino]-propyl}-amide]
  IC50: < 100 nM

## O=C(NCCCNc1nc(Nc2cccc(-c3ccncc3)c2)ncc1C1CC1)C1CCC1 [Example 121, Cyclobutanecarboxylic acid {3-[5-cyclopropyl-2-(3-pyridin-4-yl-phenylamino)-pyrimidin-4-ylamino]-propyl}-amide]
  IC50: < 100 nM

## O=C(NCCCNc1nc(Nc2ccc(CN3CCOCC3)nc2)ncc1C1CC1)C1CCC1 [Example 104, Cyclobutanecarboxylic acid {3-[5-cyclopropyl-2-(6-morpholin-4-ylmethyl-pyridin-3-ylamino)-pyrimidin-4-ylamino]-propyl}-amide]
  IC50: < 100 nM

## CC(=O)NCCCNc1nc(Nc2cccc(F)c2)ncc1C1CC1 [Example 1, N-{3-[5-Cyclopropyl-2-(3-fluoro-phenylamino)-pyrimidin-4-ylamino]-propyl}-acetamide trifluoroacetic acid salt]
  IC50: 100 to 1000 nM

## O=C(NCCCNc1nc(Nc2ccc(Br)nc2)ncc1C1CC1)C1CCC1 [Example 97, Cyclobutanecarboxylic acid {3-[2-(6-bromo-pyridin-3-ylamino)-5-cyclopropyl-pyrimidin-4-ylamino]-propyl}-amide]
  IC50: < 100 nM

## CN(C)C1CCN(C(=O)Cc2cccc(Nc3ncc(C4CC4)c(NCCCNC(=O)C4CCC4)n3)c2)CC1 [Example 128, Cyclobutanecarboxylic acid [3-(5-cyclopropyl-2-{3-[2-(4-dimethylamino-piperidin-1-yl)-2-oxo-ethyl]-phenylamino}-pyrimidin-4-ylamino)-propyl]-amide]
  IC50: < 100 nM

## CN1CCN(C(=O)Cc2cccc(Nc3ncc(C4CC4)c(NCCCNC(=O)C4CCC4)n3)c2)CC1 [Example 127, Cyclobutanecarboxylic acid [3-(5-cyclopropyl-2-{3-[2-(4-methyl-piperazin-1-yl)-2-oxo-ethyl]-phenylamino}-pyrimidin-4-ylamino)-propyl]-amide]
  IC50: < 100 nM

## CN(CCN1CCOCC1)c1ccc(Nc2ncc(C3CC3)c(NCCCNC(=O)C3CCC3)n2)cn1 [Example 102, Cyclobutanecarboxylic acid [3-(5-cyclopropyl-2-{6-[methyl-(2-morpholin-4-yl-ethyl)-amino]-pyridin-3-ylamino}-pyrimidin-4-ylamino)-propyl]-amide]
  IC50: < 100 nM

## O=C(NCCCNc1nc(Nc2ccc3[nH]nnc3c2)ncc1C1CC1)C1CCC1 [Example 214, Cyclobutanecarboxylicacid{3-[2-(1H-benzotriazol-5-ylamino)-5-cyclopropyl-pyrimidin-4-ylamino]-propyl}-amide]
  IC50: < 100 nM

## O=C(O)c1cccc(Nc2ncc(C3CC3)c(NCCCNC(=O)c3cccs3)n2)c1 [Example 34, 3-(5-Cyclopropyl-4-{3-[(thiophene-2-carbonyl)-amino]-propylamino}-pyrimidin-2-ylamino)-benzoic acid trifluoroacetic acid salt]
  IC50: 100 to 1000 nM

## O=C(NCCCNc1nc(Nc2ccc(N3CCOCC3)nc2)ncc1C1CC1)c1cccs1 [Example 54, Thiophene-2-carboxylic acid {3-[5-cyclopropyl-2-(6-morpholin-4-yl-pyridin-3-ylamino)-pyrimidin-4-ylamino]-propyl}-amide]
  IC50: < 100 nM

## N#CCc1cccc(Nc2ncc(C3CC3)c(NCCCNC(=O)C3CCC3)n2)c1 [Example 136, Cyclobutanecarboxylic acid {3-[2-(3-cyanomethyl-phenylamino)-5-cyclopropyl-pyrimidin-4-ylamino]-propyl}-amide]
  IC50: < 100 nM

## O=C(NCCCNc1nc(Nc2ccc(CO)nc2)ncc1C1CC1)C1CCC1 [Example 103, Cyclobutanecarboxylic acid {3-[5-cyclopropyl-2-(6-hydroxymethyl-pyridin-3-ylamino)-pyrimidin-4-ylamino]-propyl}-amide]
  IC50: < 100 nM

## O=C(NCCCNc1nc(Nc2ccc3ncsc3c2)ncc1C1CC1)C1CCC1 [Example 40, Cyclobutanecarboxylic acid {3-[2-(benzothiazol-6-ylamino)-5-cyclopropyl-pyrimidin-4-ylamino]-propyl}-amide. Hydrochloride salt]
  IC50: < 100 nM

## CNc1ccc(Nc2ncc(C3CC3)c(NCCCNC(=O)C3CCC3)n2)cn1 [Example 204, Cyclobutanecarboxylic acid {3-[5-cyclopropyl-2-(6-methylamino-pyridin-3-ylamino)-pyrimidin-4-ylamino]-propyl}-amide]
  IC50: < 100 nM

## O=C(NCCCNc1nc(Nc2cccc(-n3cncn3)c2)ncc1C1CC1)C1CCC1 [Example 86, Cyclobutanecarboxylic acid (3-{5-cyclopropyl-2-[3-(2H-1,2,4-triazol-1-yl)-phenylamino]-pyrimidin-4-ylamino}-propyl)-amide]
  IC50: < 100 nM

## CN1CCC(c2ccc(Nc3ncc(C4CC4)c(NCCCNC(=O)C4CCC4)n3)cc2)CC1 [Example 171, Cyclobutanecarboxylic acid (3-{5-cyclopropyl-2-[4-(1-methyl-piperidin-4-yl)-phenylamino]-pyrimidin-4-ylamino}-propyl)-amide]
  IC50: < 100 nM

## Cn1cc2ccc(Nc3ncc(C4CC4)c(NCCCNC(=O)C4CCC4)n3)cc2n1 [Example 138, Cyclobutanecarboxylic acid {3-[5-cyclopropyl-2-(2-methyl-2H-indazol-6-ylamino)-pyrimidin-4-ylamino]-propyl}-amide]
  IC50: < 100 nM

## CC(c1cccc(Nc2ncc(C3CC3)c(NCCCNC(=O)C3CCC3)n2)c1)N1CCOCC1 (centres unmarked) [Example 123, Cyclobutanecarboxylic acid (3-{5-cyclopropyl-2-[3-(1-morpholin-4-yl-ethyl)-phenylamino]-pyrimidin-4-ylamino}-propyl)-amide]
  IC50: < 100 nM

## O=C(NCCCNc1nc(Nc2cccc(F)c2)ncc1C1CC1)c1nccs1 [Example 20, Thiazole-2-carboxylic acid {3-[5-cyclopropyl-2-(3-fluoro-phenylamino)-pyrimidin-4-ylamino]-propyl}-amide]
  IC50: < 100 nM

## CC(C)n1cc(Nc2ncc(C3CC3)c(NCCCNC(=O)C3CCC3)n2)cn1 [Example 161, Cyclobutanecarboxylic acid {3-[5-cyclopropyl-2-(1-isopropyl-1H-pyrazol-4-ylamino)-pyrimidin-4-ylamino]-propyl}-amide]
  IC50: < 100 nM

## O=C1NCc2ccc(Nc3ncc(C4CC4)c(NCCCNC(=O)C4CCC4)n3)cc21 [Example 88, Cyclobutanecarboxylic acid {3-[5-cyclopropyl-2-(3-oxo-2,3-dihydro-1H-isoindol-5-ylamino)-pyrimidin-4-ylamino]-propyl}-amide hydrochloride salt]
  IC50: < 100 nM
